The test system of series [1] is CUS-exposed mice. Briefly: CUS model, overall depressive-like behavior. It is filed as in vivo. Here is the method:
(§1) Subjects were exposed to chronic unpredictable stress (CUS), consisting of daily exposure to two stressors in a random order over a 5-week period. The effect of a shorter period of unpredictable stress was examined by exposing mice to various combinations of 2-3 of the same stressors over a period of 2 days. The list of CUS stressors included: cage shaking for 1 h with loud music and lights, on, lights on during the entire night (12 h), lights-off for 3 h during the daylight phase, flashing (stroboscopic) light for 6 h, placement in 4° C. cold room for 1 h, mild restraint (in small cages) for 2 h, 45° cage tilt for 14 h, wet cage for 14 h, exposure to fox, ferret, bobcat, or coyote smell for 2 h, noise in the room for 3 h, and water deprivation for 12 h during the dark period.

Another series concerns DG microglia. The experiment in a line: DG microglia number and morphology after unpredictable stress (US/CUS). It is filed as in vivo, mice. Here is the method:
as §1
Animals were perfused trans-cardially with cold PBS followed by 4% paraformaldehyde in 0.1 M PBS, and the brains were quickly removed and placed in 4% paraformaldehyde. After 24 h the brains were placed in 30% sucrose solution in PBS and then frozen in OCT.
In some experiments microglia were visualized using an antibody to the microglia activation marker ionized calcium-binding adapter molecule-1 (Iba-1). Brain sections were first fixed in 2% paraformaldehyde, and after 3 PBS washes they were incubated over-night in 3% normal goat serum in 5% BSA with the primary antibody (rabbit anti Iba-1 1:220, Wako, Japan) at 4° C. Sections were then incubated with the secondary antibody (goat anti rabbit, 1:200; Invitrogen) for 1 hour at RT and counter-stained with DAPI (Sigma, Israel).
(§2) Images were captured using Nikon Eclipse fluorescent microscope and CI Nikon confocal microscope and camera. The number of GFP-labeled microglia (and in some studies the number of BrdU-labeled microglia and other cells), as well and the microglial soma area were automatically measured at ×10 magnification in a defined area exclusively containing the entire Dentate Gyrus or prelimbic cortex, for each slide, using Nikon Imaging Elements Software (NIS-Elements). Microglia processes length was measured by capturing images at 40× magnification and by manual tracing of the processes of 4 randomly selected cells/section their processes using the NIS Elements software.

Series [2] deals with CUS-exposed mice. Briefly: Sucrose preference test. In kind it is in vivo. As for the experimental part:
as §1, with “dark period. Following baseline adaptation to sucrose for several days, animals were presented in the beginning of the dark circadian phase with two graduated drinking tubes, one containing tap water and the other 2% sucrose solution for 3 hr. Sucrose preference was calculated as the percent of sucrose consumption out of the total drinking volume.” for “dark period.”

Series [3] concerns CUS-exposed mice. Briefly: Social exploration test. It is filed as in vivo. The following applies: for social exploration time: 5-weeks CUS-exposed mice treated for 2 additional weeks of CUS. As for the experimental part:
as §1, with “dark period. Each subject was placed in an observation cage and allowed to habituate to the cage for 15 min, following which a male juvenile was placed in the cage. Social exploration, defined as the time of near contact between the nose of the subject and the juvenile conspecific, was then recorded for three minutes, using computerized in-house software.” for “dark period.”

Series [4] relates to CUS-exposed mice. The experiment in a line: Porsolt forced swim test. In kind it is in vivo.
Experimental: Subjects were exposed to chronic unpredictable stress (CUS), consisting of daily exposure to two stressors in a random order over a 5-week period. […] The list of CUS stressors included: cage shaking for 1 h with loud music and lights, on, lights on during the entire night (12 h), lights-off for 3 h during the daylight phase, flashing (stroboscopic) light for 6 h, placement in 4° C. cold room for 1 h, mild restraint (in small cages) for 2 h, 45° cage tilt for 14 h, wet cage for 14 h, exposure to fox, ferret, bobcat, or coyote smell for 2 h, noise in the room for 3 h, and water deprivation for 12 h during the dark period.
Mice were placed in 20 cm diameter glass cylinder filled to 10 cm with 21° C. water and their behavior was analyzed for five min. The time spent in immobility, defined as the absence of all movement except motions required to maintain the animal's head above the water, and the latency to first immobility episode were recorded using an in-house computerized software.
Another series concerns DG cells. Briefly: BrdU labeling of DG cells (neurogenesis / proliferation). In kind it is in vivo, mice. The following applies: M-CSF 100 μg/kg i.p. daily for 5 days. Here is the method: BrdU immunofluorescent staining was performed on 8 μm frozen brain sections, fixated in 50% formamide/2×SCC (0.3M NaCl and 0.03 M sodium citrate) for 2 hours at 65° C. After one wash with 2×SCC, sections were incubated in 2 N HCl for 30 minutes at 37° C. Sections were then rinsed in 0.1 M boric acid at pH 8.5 and washed 3 times in PBS, following which they were incubated in 3% normal goat serum in 1% BSA/0.1% Triton for 30 min at room temperature and then incubated with rat monoclonal anti-BrdU antibody (1:200, AbD serotec) for 48 hours at 4° C. […]
as §2

[5] abbreviates: 5-weeks CUS-exposed mice treated for 2 additional weeks of CUS (imipramine, minocycline in drinking water; GM-CSF i.p. 3 time/week).
Setting [6] is: 5-weeks CUS, drug beginning two days before and throughout CUS.
[7] abbreviates: 5-weeks CUS-exposed mice treated for 2 additional weeks of CUS.
The mark [8] stands for this setting: CUS-exposed mice, M-CSF 100 μg/kg i.p. daily for 5 days.

Turning to `CN(C)CCCN1c2ccccc2CCc2ccccc21` [imipramine, reference compound], in the series with CUS-exposed mice [1] (administration to mice with established CUS-induced depressive-like behavior), the “effect on established CUS-induced depressive-like behavior” value is “produced minimal beneficial effects”. Further, the DG microglia number result in the series with DG microglia (setting [5]) is “no differences from any of the groups”. Besides, in the series with DG microglia (setting [6]), the hippocampal microglia number result is recorded as “blocked the CUS-induced decline in hippocampal microglia number”, the microglia processes length entry was “blocked the CUS-induced decline” and the microglia soma size entry is reported as “blocked the CUS-induced decline”. Besides, the “number of hippocampal (DG) microglia” value in the series with DG microglia (2 days of US exposure, drug via drinking water beginning 2 days before US initiation (minocycline 40, imipramine 20 mg/kg/day)) is on record as “completely reversed the increase in hippocampal microglia”. Also, the sucrose preference result with CUS-exposed mice [2] (setting [6]) is on record as “prevented the CUS-induced reductions in sucrose preference”. Further, the social exploration time entry in the series with CUS-exposed mice [3] was “further reductions were evident”. Besides, the social exploration result in the series with CUS-exposed mice [3] (setting [6]) is given as “prevented the CUS-induced reductions”. Also, in the series with CUS-exposed mice [4] (setting [7]), the floating time result is on record as “showed no difference from non-stressed controls”.
Take GM-CSF: the DG microglia number result in the series on DG microglia (setting [5]) is recorded as “significantly greater number of microglia as compared with the control CUS-exposed mice”. In the series with CUS-exposed mice [2] (setting [7]), the sucrose preference result was “completely reversed the suppressive effects of CUS on sucrose preference”. Further, the social exploration time entry in the series on CUS-exposed mice [3] is recorded as “induced an elevation in the social exploration time”. For the same molecule, in the series on CUS-exposed mice [4] (setting [7]), the floating time result is “showed no difference from non-stressed controls”.
Take “IL-1β: microglia-stimulating cytokine interleukin-1β, given intra-hippocampally”: the “microglia number and morphology” value with DG microglia (acute intra-hippocampal administration in WT mice) was “mimicked the effects of short-term US on microglia number and morphology”.

B1: M-CSF: Macrophage colony-stimulating factor, homodimer glycoprotein; microglia activator (protein, UniProt P09603 33-554, looked up)
Macrophage colony-stimulating …: EEVSEYCSHMIGSGHLQSLQRLIDSQMETSCQITFEFVDQEQLKDPVCYLKKAFLLVQDIMEDTMRFRDNTPNAIAIVQLQELSLRLKSCFTKDYEEHDKACVRTFYETPLQLLEKVKNVFNETKNLLDKDWNIFSKNCNNSFAECSSQDVVTKPDCNCLYPKAIPSSDPASVSPHQPLAPSMAPVAGLTWEDSEGTEGSSLLPGEQPLHTVDPGSAKQRPPRSTCQSFEPPETPVVKDSTIGGSPQPRPSVGAFNPGMEDILDSAMGTNWVPEEASGEASEIPVPQGTELSPSRPGGGSMQTEPARPSNFLSASSPLPASAKGQQPADVTGTALPRVGPVRPTGQDWNHTPQKTDHPSALLRDPPEPGSPRISSLRPQGLSNPSTLSAQPQLSRSHSSGSVLPLGELEGRRSTRDRRSPAEPEGGPASEGAARPLPRFNSVPLTDTGHERQSEGSFSPQLQESVFHLLVPSVILVLLAVGGLLFYRWRRRSHQEPQRADSPLEQPEGSPLTQDDRQVELPV
For the molecule B1, in the series with CUS-exposed mice [1] (CUS-exposed mice), the depressive-like behavioral symptoms entry is given as “completely reversed the depressive symptoms after a few days of treatment”. The depressive symptoms entry in the series with CUS-exposed mice [1] (non-stressed mice) is listed as “did not cause depressive symptoms in non-stressed mice”. In addition, the “generation of new (BrdU-labeled) DG cells that are not microglia” value with DG cells (CUS-exposed mice) is recorded as “marked increase in the generation of new (BrdU-labeled) DG cells that are not microglia”. The “microglia proliferation (GFP microglia co-labeled for BrdU)” value with DG cells is “overall increase in microglia proliferation”. Besides, the DG microglia number entry in the series with DG microglia (control and CUS-exposed mice, M-CSF 100 μg/kg i.p. daily for 5 days) is “overall increase in DG microglia number, completely normalizing microglia number in CUS-exposed mice”. Moreover, in the series on CUS-exposed mice [2] (setting [8]), the sucrose preference entry is on record as “completely reversed the suppressive effects of CUS on sucrose preference”. The social exploration result with CUS-exposed mice [3] (setting [8]) is reported as “completely reversed the suppressive effects of CUS”. Further, in the series on CUS-exposed mice [4] (setting [8]), the floating time entry is “reversed” and the “latency to first float” value was “did not reach statistical significance”.

Source of the values: patent US10626178B2, “Treatment of mood and stress related disorders” (priority 2013, dated 2020).
